pEC50, pIC50: −log10 of the molar value.
What was measured:
[1] = Liver Microsome Stability Assay (monkey); conditions: monkey liver microsomes, with NADPH, 1.0 uM compound
Experimental: (§1) Stability of a compound was assessed in the presence of liver microsomes from various sources—mouse, rat, monkey and human liver microsomes. 1.0 uM compound, 0.4% DMSO in 0.1 M Potassium Phosphate with 1.0 mg/mL liver microsomes, were incubated at 37° C. with or without 1 mM NADPH. The samples were quenched at 0, and 30 minutes.

[2] = system: multiple myeloma cell line NCI-H929; test: H929 Cell Viability Assay; type: cell-based, human; conditions: Homo sapiens, NCI-H929, 48 h, NCI-H929 cells, Celltiter-Glo
In short: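 Luminescent ATP detection (CellTiter-Glo) after 48 hours of compound exposure measures viability. Cells were plated in RPMI 1640 containing 10% fetal bovine serum and kept at 37° C under 5% CO2.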

[3] = Liver Microsome Stability Assay (rat); conditions: rat liver microsomes, with NADPH, 1.0 uM compound
Experimental: as §1

[4] = system: PD1-ss+10aa/Gaussia Luciferase; test: Dox-Induced PD1-ss-Gluc Assay; type: cell-based; conditions: 24 hr Dox induction; 293FRT/TO cells; read-out: 24 hr Dox Inducible PD1ssGluc 293FRT/TO: Mean IC50
In short: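 Gaussia luciferase fused downstream of the PD1 signal peptide plus 10 residues was expressed on doxycycline induction in stably transfected Flp-In 293 T-REx cells. Compounds were added with doxycycline and incubated at 37 °C, 5% CO2.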

[5] = Liver Microsome Stability Assay (mouse); conditions: mouse liver microsomes, with NADPH, 1.0 uM compound
Experimental: as §1

[6] = system: multiple myeloma cell line U266B1; test: U266 Cell Viability Assay; type: cell-based, human; conditions: Homo sapiens, U-266, 48 h, U266B1 cells, Celltiter-Glo
In short: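 Steps: culture in RPMI 1640 plus 10% FBS and 2 mM glutamine; plate and add compound dilutions; incubate 48 hours at 37° C., 5% CO2; add CellTiter-Glo and quantify luciferase signal.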

[7] = system: HER3-ss+4aa/Gaussia Luciferase; test: Dox-Induced Her3-ss-Gluc Assay; type: cell-based; conditions: 24 hr Dox induction; 293FRT/TO cells; read-out: 24 hr Dox Inducible Her3(ss + 4)Gluc 293FRT/TO: Mean IC50
In short: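 Cells were seeded a day ahead, then given compound diluted in DMSO/media with doxycycline to induce expression of the HER3 signal sequence (+4 aa)–Gaussia luciferase fusion. Incubation was at 37° C., 5% CO2, in a stable Flp-In 293 T-REx line.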

[8] = system: IL-2-FL/Gaussia Luciferase; test: Dox Induced IL2-FL-Gluc Assay; type: cell-based; conditions: for pIC50: 24 hr Dox induction, 293FRT/TO cells, read-out: 24 hr Dox Inducible IL2FLGluc 293FRT/TO: Mean IC50; for 24 hr Dox Inducible IL2FLGluc 293FRT/TO: IL2/PD1: ratio of IL2FLGluc IC50 to PD1ssGluc IC50
In short: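 Cells are plated one day ahead, then receive compound dilutions in DMSO/media with doxycycline and incubate at 37° C, 5% CO2. They are Flp-In 293 T-REx cells expressing a full-length IL-2 (amino acids 1-153)–Gaussia luciferase fusion under T-REx control.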

[9] = system: TNFα-FL/Gaussia Luciferase; test: Dox Induced TNFα-FL-Gluc Assay; type: cell-based; conditions: for pIC50: 24 hr Dox induction, 293FRT/TO cells, read-out: 24 hr Dox Inducible TNFaFLGluc 293FRT/TO: Mean IC50; for 24 hr Dox Inducible TNFaFLGluc 293FRT/TO: TNF/PD1: ratio of TNFaFLGluc IC50 to PD1ssGluc IC50
In short: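 Stereoisomer mixtures were tested where stereochemistry is not drawn. Induction used doxycycline added together with compound dilutions in DMSO/media to Flp-In 293 T-REx cells carrying a T-REx-regulated TNFα (aa 1-233)-Gaussia luciferase construct, then incubated at 37 °C, 5% CO2.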

[10] = Liver Microsome Stability Assay (human); conditions: human liver microsomes, with NADPH, 1.0 uM compound
Experimental: as §1

Row | Compound | Liver Microsome Stability (Multiple Species): Monkey - % Remaining after 30 min w/NADPH [1] [%] | pEC50 [2] | Liver Microsome Stability (Multiple Species): Rat - % Remaining after 30 min w/NADPH [3] [%] | pIC50 [4] | Liver Microsome Stability (Multiple Species): Mouse - % Remaining after 30 min w/NADPH [5] [%] | pEC50 [6] | pIC50 [7] | pIC50 [8] | 24 hr Dox Inducible IL2FLGluc 293FRT/TO: IL2/PD1 [8] | pIC50 [9] | 24 hr Dox Inducible TNFaFLGluc 293FRT/TO: TNF/PD1 [9] | Liver Microsome Stability (Multiple Species): Human - % Remaining after 30 min w/NADPH [10] [%]
1 | CC(=O)N1CC(CCc2ccc(N3CCC[C@@H]3c3csc(NC(=O)c4cccn4Cc4ccnc(F)c4)n3)cc2)C1 [Compound A176] | 0.16 | 6.36 | 18.6 | 7.82 | 2.72 | < 4.60 | 7.51 | 7.38 | 2.8 | 6.31 | 32.4 | 1.34
2 | O=C(Nc1ccc(N2CCC[C@@H]2c2csc(NC(=O)c3cccn3Cc3ccnc(F)c3)n2)cc1)OC1COC1 [Compound A177, oxetan-3-yl (R)-(4-(2-(2-(1-((2-fluoropyridin-4-yl)methyl)-1H-pyrrole-2-carboxamido)thiazol-4-yl)pyrrolidin-1-yl)phenyl)carbamate] | 9.52 | 7.79 | 57.1 | 9.03 | 29.1 | < 4.60 | 8.62 | 8.55 | 3 | 7.59 | 27.6 | 39.3
3 | O=C(Nc1ccc(N2CCC[C@@H]2c2csc(NC(=O)c3cccn3Cc3ccnc(F)c3)n2)cc1)OC1CNC1 [Compound A178, azetidin-3-yl (R)-(4-(2-(2-(1-((2-fluoropyridin-4-yl)methyl)-1H-pyrrole-2-carboxamido)thiazol-4-yl)pyrrolidin-1-yl)phenyl)carbamate] | 70.8 | 6.28 | 51.4 | 7.62 | 70.6 | 5.13 | 7.12 | 6.97 | 4.5 | 6.03 | 39 | 72.8
4 | CC(=O)N1CC(OC(=O)Nc2ccc(N3CCC[C@@H]3c3csc(NC(=O)c4cccn4Cc4ccnc(F)c4)n3)cc2)C1 [Compound A179, 1-acetylazetidin-3-yl (R)-(4-(2-(2-(1-((2-fluoropyridin-4-yl)methyl)-1H-pyrrole-2-carboxamido)thiazol-4-yl)pyrrolidin-1-yl)phenyl)carbamate] | 15.4 | 7.15 | 69.3 | 8.58 | 34.8 | < 4.60 | 8.16 | 8.05 | 3.4 | 6.86 | 52.3 | 21.3
5 | COC(=O)Nc1ccc(N2CCC[C@@H]2c2csc(NC(=O)c3cc(C)cn3Cc3ccnc(F)c3)n2)nc1 [Compound A180, methyl (R)-(6-(2-(2-(1-((2-fluoropyridin-4-yl)methyl)-4-methyl-1H-pyrrole-2-carboxamido)thiazol-4-yl)pyrrolidin-1-yl)pyridin-3-yl)carbamate] | 7.35 | 6.15 | 3.14 | 8.31 | 14.4 | < 4.60 | 8.43 | 7.85 | 52.35 | 7.30 | 440.37 | 8.99
6 | O=C(Nc1nc(/C=C/c2cocn2)cs1)c1cccn1Cc1ccncc1 [Compound B1, (E)-N-(4-(2-(oxazol-4-yl)vinyl)thiazol-2-yl)-1-(pyridin-4-ylmethyl)-1H-pyrrole-2-carboxamide] | 1.07 | < 4.60 | 4.96 | 6.89 | 5.93 | < 4.60 | 4.89 | 4.70 | 160 | < 4.60 | >194 | 1.81
7 | Cc1nc(/C=C/c2csc(NC(=O)c3cccn3Cc3ccncc3)n2)co1 [Compound B2, (E)-N-(4-(2-(2-methyloxazol-4-yl)vinyl)thiazol-2-yl)-1-(pyridin-4-ylmethyl)-1H-pyrrole-2-carboxamide] | 0.9 | < 4.60 | 1.8 | 6.66 | 7.06 | < 4.60 | < 4.60 | < 4.60 | 110 | < 4.60 | >114 | 0.69
8 | O=C(Nc1nc(/C=C/c2ccon2)cs1)c1cccn1Cc1ccncc1 [Compound B5, (E)-N-(4-(2-(isoxazol-3-yl)vinyl)thiazol-2-yl)-1-(pyridin-4-ylmethyl)-1H-pyrrole-2-carboxamide] | 0.47 | < 4.60 | 0.69 | 5.67 | 1.26 | < 4.60 | < 4.60 | < 4.60 | 12 | < 4.60 | >11.6 | 0.87

Source: patent publication US20230286973A1, “PROTEIN SECRETION INHIBITORS” (KEZAR LIFE SCIENCES, priority 2020, published 2023)
